We go through one compound from patent EP4786487A1, “PEPTIDE” (Peptidream Inc, priority 2023, dated 2025).

The structures appear in SMILES notation. Starred links: 1 amine or outer side, 2 acyl side, 3 side chain; linkers in the order of their positions; H or OH if unused. Positions of bridges follow the written chain, without caps; N, C: chain ends. Non-standard residues stand in square brackets, D forms with d. Residues, ends and D or L forms follow the SMILES beside them. Phe(3-OCH2COOH) = N[C@@H](Cc1cccc(OCC(=O)O)c1)C(=O)O; Phe(4-COOH) = N[C@@H](Cc1ccc(C(=O)O)cc1)C(=O)O; Gly(N(CH2)3COOH) = O=C(O)CCCNCC(=O)O; X1 = CCCCCCC[C@H](N[*:1])C(=O)[*:2]; NMeF = CN[C@@H](Cc1ccccc1)C(=O)O; NMeA = CN[C@@H](C)C(=O)O

Type in all cases: cell-based
Experiment [1] concerns the target T1, GDF-11 (Homo sapiens, UniProt O95390).
T1 construct: purchased R&D systems 1958-GD-G8/CF
T1 sequence (O95390 299-407): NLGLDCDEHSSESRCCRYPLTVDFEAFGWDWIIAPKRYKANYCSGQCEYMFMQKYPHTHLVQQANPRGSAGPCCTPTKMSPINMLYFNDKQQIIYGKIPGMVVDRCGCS
Description: Reporter gene assay for myostatin signaling in HEK-Blue TGF-β Cells, GDF-11. The conditions noted are these: GDF-11 3 ng/mL. The method, then:
In this Example, the in vitro activity of the peptide Myostatin_99_v145 (SEQ ID NO: 30) was evaluated using a reporter gene assay for myostatin signaling.
HEK-Blue (trademark) TGF-β Cells (hkb-tgfbv2, InvivoGen) were cultured in DMEM High glucose GlutaMAX (10569010, Thermo) containing 10% FBS (Heat-inactivated FBS QUALIFIED, 10270-106, Gibco), […] Normocin (ant-nr-05, InvivoGen), […] Zeocin (ant-zn-05, InvivoGen), and 50 µg/mL Gentamicin (11980-14, Nacalai Tesque). The cultured HEK-Blue (trademark) TGF-β Cells were suspended in an assay medium containing DMEM High glucose GlutaMAX, 50 µg/mL Gentamicin, and 1% bovine serum albumin (A7030, Sigma). The cells were seeded at 4 × 10^4 cells/well onto a 96-well plate (356461, Corning), namely BioCoat poly-D-lysine multi-well plate, and allowed to stand for 30 min. […]
To each well of a UV-Star µClear 96-well (655801, Greiner), 180 µL of Detection buffer (prepared by diluting, with 17.64 mL of distilled water, 180 µL of QUANTI-Blue buffer and 180 µL of QUANTI-Blue solution) was dispensed. […] The plate was covered and incubated in a CO2 incubator for 3 to 5 hours, and absorbance was measured (Envision 2104, PerkinElmer, 620 nm/bp 40 nm). Based on the absorbance, IC50 values of the peptide were calculated using software (Prism 9, GraphPad).

Experiment [2] addresses T2, Myostatin (Homo sapiens, UniProt O14793).
T2 construct: active myostatin (also called mature myostatin) is a homodimer consisting of two C-terminal growth factor domains; purchased R&D systems 788-G8/CF
T2 sequence (O14793 267-375): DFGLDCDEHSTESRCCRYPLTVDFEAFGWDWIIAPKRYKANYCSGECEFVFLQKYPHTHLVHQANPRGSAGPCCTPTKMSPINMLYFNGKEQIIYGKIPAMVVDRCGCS
Description: Reporter gene assay for myostatin signaling in HepG2 cell line, Evaluation Procedure (1), myostatin inhibition. The settings on record: Method A: Myostatin 10 ng/mL; read-out: IC50 (Luciferase) Myostatin HepG2. The method, boiled down:
(§1)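 HepG2 cells transfected with pGL3(CAGA)12-luciferase reporter, serum-starved in 0.1% BSA medium, then stimulated with myostatin or GDF-11 plus 4-fold peptide dilutions (0.006–100 nmol/L for myostatin, 0.12–2000 nmol/L for GDF-11) for 20–24 h at 37 °C. Luminescence read with One-Glo; IC50 calculated.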
(In general: A reporter such as luciferase makes a cellular process visible.)

Experiment [3] has as its system Myostatin. The description is as above. The settings on record: Method A; GDF-11 IC50 versus Myostatin IC50. The method in brief: as §1

For `CCCCCCC[C@@H]1NC(=O)[C@H](Cc2ccccc2)N(C)C(=O)[C@H](CCCNC(=N)N)NC(=O)[C@H](Cc2ccc(C(=O)O)cc2)NC(=O)[C@H](Cc2cccc(OCC(=O)O)c2)NC(=O)[C@H](C)N(C)C(=O)[C@H]([C@@H](C)CC)NC(=O)[C@H](Cc2ccccc2)N(C)C(=O)[C@H](Cc2ccc(O)cc2)NC(=O)[C@H](Cc2c[nH]c3ccccc23)NC(=O)[C@H](C)NC(=O)CN(CCCC(=O)O)C(=O)CSC[C@H](C(=O)O)NC(=O)[C@H](Cc2ccccc2)N(C)C(=O)[C@H](C)N(C)C1=O` [Myostatin_99_v145] ({CH2CO}-[Gly(N(CH2)3COOH)]AWY[NMeF]I[NMeA][Phe(3-OCH2COOH)][Phe(4-COOH)]R[NMeF][X1][NMeA][NMeF][dC]-OH; thioether N-15), the IC50 in experiment [1] (read-out: IC50 (nmol/L) GDF11) turned out to be 61.2 nmol/L; in experiment [2], 0.0016 µM. In addition, in experiment [1] (read-out: IC90 (nmol/L) GDF11), the IC90 was 702 nmol/L. The Selectivity in experiment [3] is listed as 259.
